What all share (assay type): cell-based
Test [1] has as its target T1, NHE3 (Homo sapiens, UniProt P48764).
T1 construct: host or cells: cells, not specified
T1 sequence (P48764 26-834): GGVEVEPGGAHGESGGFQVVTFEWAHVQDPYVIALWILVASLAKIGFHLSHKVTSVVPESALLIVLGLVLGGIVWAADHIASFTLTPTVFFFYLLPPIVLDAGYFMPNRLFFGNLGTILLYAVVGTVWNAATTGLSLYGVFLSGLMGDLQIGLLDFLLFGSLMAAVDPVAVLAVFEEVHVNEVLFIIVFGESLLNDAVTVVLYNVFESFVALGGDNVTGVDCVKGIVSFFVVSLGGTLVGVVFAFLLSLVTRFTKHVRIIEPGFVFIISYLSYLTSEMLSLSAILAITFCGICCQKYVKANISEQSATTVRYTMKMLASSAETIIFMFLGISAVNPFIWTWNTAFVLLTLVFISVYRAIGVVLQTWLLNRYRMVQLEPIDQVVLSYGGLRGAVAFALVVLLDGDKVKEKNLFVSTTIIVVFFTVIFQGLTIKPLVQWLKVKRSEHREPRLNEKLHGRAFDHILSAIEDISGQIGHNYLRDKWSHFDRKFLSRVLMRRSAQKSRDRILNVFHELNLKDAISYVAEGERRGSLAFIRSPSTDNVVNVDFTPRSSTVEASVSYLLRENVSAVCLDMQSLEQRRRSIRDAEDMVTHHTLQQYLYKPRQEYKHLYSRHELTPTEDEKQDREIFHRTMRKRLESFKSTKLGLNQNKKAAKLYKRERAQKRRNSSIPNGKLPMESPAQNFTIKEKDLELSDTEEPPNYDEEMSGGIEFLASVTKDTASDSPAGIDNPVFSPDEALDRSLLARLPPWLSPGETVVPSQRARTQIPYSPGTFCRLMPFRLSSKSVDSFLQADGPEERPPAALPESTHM
Put plainly: Determination of the NHE inhibition: recovery of intracellular pH after acidification (BCECF fluorescence), NHE3. As to conditions: for IC50: pH recovery registered at three minutes. How it is done: [drawing 14] is obtained by adding saturated sodium hydrogencarbonate solution to a suspension of 306 mg of 2-(2-chloro-4-methyl-3-thienylamino)-1H-thieno[3,4-d]imidazole hydrochloride (example 5) in 40 ml of water, in the course of which a pH of 10 is established. After the suspension had been stirred at room temperature for 1 hour, the solid was filtered off and washed repeatedly with water, and the product was dried in an air stream. Colorless crystalline product, decomposition point from 180° C. Pharmacological Data: Determination of the NHE Inhibition Test Description:
This test determined the recovery of the intracellular pH (pHi) after acidification, and this recovery occurs in the case of functional NHE even under bicarbonate-free conditions. To this end, the pHi was determined using the pH-sensitive fluorescent dye BCECF (Calbiochem, the BCECF-AM precursor is used). The cells were initially loaded with BCECF. The BCECF fluorescence was determined in a Ratio Fluorescence Spectrometer (Photon Technology International, South Brunswick, N.J., USA) at excitation wavelengths of 505 and 440 nm and an emission wavelength of 535 nm and converted to the pHi by means of calibration curves. The cells had already been incubated in NH4Cl buffer (pH 7.4) in the course of the BCECF loading (NH4Cl buffer: 115 mM NaCl, 20 mM NH4Cl, 5 mM KCl, 1 mM CaCl2, 1 mM MgSO4, 20 mM Hepes, 5 mM glucose, 1 mg/ml BSA; a pH of 7.4 is established using 1 M NaOH). The intracellular acidification is induced by adding 975 μl of an NH4Cl-free buffer (see below) to 25 μl aliquots of the cells incubated in NH4Cl buffer. The subsequent rate of the pH recovery was registered at two minutes for NHE1, at five minutes for NHE2 and at three minutes for NHE3. For the calculation of the inhibitory potency of the tested substances, the cells were initially investigated in buffers in which complete or absolutely no pH recovery took place. For complete pH recovery (100%), the cells were incubated in Na^+-containing buffer (133.8 mM NaCl, 4.7 mM KCl, 1.25 mM CaCl2, 1.25 mM MgCl2, 0.97 mM Na2HPO4, 0.23 mM NaH2PO4, 5 mM Hepes, 5 mM glucose, a pH of 7.0 is established using 1 M NaOH). For the determination of the 0% value, the cells were incubated in an Na^+-free buffer (133.8 mM choline chloride, 4.7 mM KCl, 1.25 mM CaCl2, 1.25 mM MgCl2, 0.97 mM K2HPO4, 0.23 mM KH2PO4, 5 mM Hepes, 5 mM glucose, a pH of 7.0 is established using 1 M KOH). The substances to be tested were made up in the Na^+-containing buffer. The recovery of the intracellular pH at each tested concentration of a substance was expressed in percent of the maximum recovery. The percentages of the pH recovery were used to calculate the IC50 value of the particular substance for the individual NHE subtypes by means of the program Sigma-Plot.

The target in test [2] is NHE1 (Homo sapiens, UniProt P19634). Put plainly: NHE inhibition, NHE1 subtype. The conditions noted are these: in a therapeutically utilizable concentration range. How it is done: (§1) This test determined the recovery of the intracellular pH (pHi) after acidification, and this recovery occurs in the case of functional NHE even under bicarbonate-free conditions. To this end, the pHi was determined using the pH-sensitive fluorescent dye BCECF (Calbiochem, the BCECF-AM precursor is used). The cells were initially loaded with BCECF. The BCECF fluorescence was determined in a Ratio Fluorescence Spectrometer (Photon Technology International, South Brunswick, N.J., USA) at excitation wavelengths of 505 and 440 nm and an emission wavelength of 535 nm and converted to the pHi by means of calibration curves. The cells had already been incubated in NH4Cl buffer (pH 7.4) in the course of the BCECF loading (NH4Cl buffer: 115 mM NaCl, 20 mM NH4Cl, 5 mM KCl, 1 mM CaCl2, 1 mM MgSO4, 20 mM Hepes, 5 mM glucose, 1 mg/ml BSA; a pH of 7.4 is established using 1 M NaOH). The intracellular acidification is induced by adding 975 μl of an NH4Cl-free buffer (see below) to 25 μl aliquots of the cells incubated in NH4Cl buffer. The subsequent rate of the pH recovery was registered at two minutes for NHE1, at five minutes for NHE2 and at three minutes for NHE3. For the calculation of the inhibitory potency of the tested substances, the cells were initially investigated in buffers in which complete or absolutely no pH recovery took place. […]

Test [3] addresses T2, NHE2 (Homo sapiens, UniProt Q9UBY0).
T2 sequence (Q9UBY0 1-812): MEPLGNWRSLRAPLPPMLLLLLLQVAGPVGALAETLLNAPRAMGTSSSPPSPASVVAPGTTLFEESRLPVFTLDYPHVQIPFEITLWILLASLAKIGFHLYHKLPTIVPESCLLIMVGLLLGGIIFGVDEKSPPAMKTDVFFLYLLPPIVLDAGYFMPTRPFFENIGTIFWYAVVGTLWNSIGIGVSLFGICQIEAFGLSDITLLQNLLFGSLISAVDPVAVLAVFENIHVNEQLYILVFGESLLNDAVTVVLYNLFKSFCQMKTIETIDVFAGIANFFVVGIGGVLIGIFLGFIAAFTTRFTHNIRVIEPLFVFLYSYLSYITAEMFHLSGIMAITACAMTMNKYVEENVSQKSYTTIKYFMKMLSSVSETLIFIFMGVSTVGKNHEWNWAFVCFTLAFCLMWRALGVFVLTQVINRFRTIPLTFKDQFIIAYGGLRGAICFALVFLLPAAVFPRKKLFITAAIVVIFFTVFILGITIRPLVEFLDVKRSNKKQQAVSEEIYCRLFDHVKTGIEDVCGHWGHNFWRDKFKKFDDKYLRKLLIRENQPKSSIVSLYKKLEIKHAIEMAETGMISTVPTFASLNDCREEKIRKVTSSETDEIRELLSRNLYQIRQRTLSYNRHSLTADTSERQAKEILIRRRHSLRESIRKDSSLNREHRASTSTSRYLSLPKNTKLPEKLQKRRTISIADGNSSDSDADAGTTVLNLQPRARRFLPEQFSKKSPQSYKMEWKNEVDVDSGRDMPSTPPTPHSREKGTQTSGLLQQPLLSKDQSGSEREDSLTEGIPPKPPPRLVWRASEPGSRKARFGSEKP
Put plainly: NHE inhibition, NHE2 subtype. The conditions noted are these: in a therapeutically utilizable concentration range. As for the experimental part: as §1

Test [4] has as its target T3, NHE5 (Homo sapiens, UniProt Q14940).
T3 sequence (Q14940 1-896): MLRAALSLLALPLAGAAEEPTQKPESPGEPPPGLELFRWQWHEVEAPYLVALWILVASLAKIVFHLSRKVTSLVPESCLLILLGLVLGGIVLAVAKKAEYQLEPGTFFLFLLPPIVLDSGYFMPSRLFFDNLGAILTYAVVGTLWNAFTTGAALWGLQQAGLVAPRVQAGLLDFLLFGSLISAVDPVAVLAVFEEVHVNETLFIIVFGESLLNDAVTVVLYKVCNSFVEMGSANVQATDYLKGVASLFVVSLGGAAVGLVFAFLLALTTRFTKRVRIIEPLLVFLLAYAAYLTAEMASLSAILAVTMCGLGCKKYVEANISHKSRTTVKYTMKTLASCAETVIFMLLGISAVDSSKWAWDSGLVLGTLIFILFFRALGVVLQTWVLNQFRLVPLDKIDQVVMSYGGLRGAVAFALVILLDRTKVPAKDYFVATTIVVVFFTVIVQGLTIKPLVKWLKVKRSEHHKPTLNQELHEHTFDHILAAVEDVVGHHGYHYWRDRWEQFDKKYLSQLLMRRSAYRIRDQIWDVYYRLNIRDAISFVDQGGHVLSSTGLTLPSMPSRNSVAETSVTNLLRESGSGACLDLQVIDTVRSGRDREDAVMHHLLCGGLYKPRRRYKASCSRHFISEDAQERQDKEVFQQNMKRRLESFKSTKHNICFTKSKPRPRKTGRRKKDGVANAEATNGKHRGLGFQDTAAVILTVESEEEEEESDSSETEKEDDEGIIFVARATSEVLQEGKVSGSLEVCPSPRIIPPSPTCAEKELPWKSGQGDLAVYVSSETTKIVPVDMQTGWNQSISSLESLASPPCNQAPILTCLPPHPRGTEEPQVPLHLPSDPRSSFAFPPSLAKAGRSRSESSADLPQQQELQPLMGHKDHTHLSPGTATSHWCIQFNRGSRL
Description: NHE inhibition, NHE5 subtype. As to conditions: in a therapeutically utilizable concentration range.

Where a name gives a salt, the structure may show the parent alone.

NHE1, sequence (P19634 whole entry, species assumed): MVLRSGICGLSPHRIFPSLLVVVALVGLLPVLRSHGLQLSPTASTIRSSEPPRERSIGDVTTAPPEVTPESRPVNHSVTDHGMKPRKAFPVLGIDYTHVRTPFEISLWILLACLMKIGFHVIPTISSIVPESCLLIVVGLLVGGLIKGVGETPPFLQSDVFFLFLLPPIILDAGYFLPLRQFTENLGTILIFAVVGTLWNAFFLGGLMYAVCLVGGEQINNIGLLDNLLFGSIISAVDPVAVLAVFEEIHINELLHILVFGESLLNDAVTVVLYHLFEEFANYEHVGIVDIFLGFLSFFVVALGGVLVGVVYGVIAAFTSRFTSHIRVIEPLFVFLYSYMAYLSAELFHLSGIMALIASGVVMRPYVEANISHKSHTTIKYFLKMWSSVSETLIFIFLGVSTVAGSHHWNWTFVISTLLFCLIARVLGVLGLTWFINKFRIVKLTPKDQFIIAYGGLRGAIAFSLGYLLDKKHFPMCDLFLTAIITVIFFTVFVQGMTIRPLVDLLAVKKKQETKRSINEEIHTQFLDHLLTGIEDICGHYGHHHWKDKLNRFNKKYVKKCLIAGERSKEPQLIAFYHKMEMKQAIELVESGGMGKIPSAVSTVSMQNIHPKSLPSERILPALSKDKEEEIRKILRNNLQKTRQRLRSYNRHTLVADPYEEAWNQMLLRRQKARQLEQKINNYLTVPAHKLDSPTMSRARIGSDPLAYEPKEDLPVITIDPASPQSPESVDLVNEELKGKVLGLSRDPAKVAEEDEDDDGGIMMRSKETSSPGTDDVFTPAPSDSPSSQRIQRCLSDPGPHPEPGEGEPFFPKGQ

Turning to `Clc1cccc(Cl)c1Nc1nc2cscc2[nH]1` [Example 2, 2-(2,6-Dichlorophenylamino)-1H-thieno[3,4-d]imidazole hydrochloride], in test [1], it took 220 nM to reach half-maximal inhibition (IC50). That is a sub-micromolar value. The same measure, in the same setting: for `Cc1csc(Cl)c1Nc1nc2cscc2[nH]1` [Example 5, 2-(2-Chloro-4-methyl-3-thienylamino)-1H-thieno[3,4-d]imidazole hydrochloride] the value was 150 nM.

The molecule `FC(F)(F)c1ccccc1Nc1nc2cscc2[nH]1` [Example 6, 2-(2-Trifluoromethylphenylamino)-1H-thieno[3,4-d]imidazole hydrochloride] returned a concentration for half-maximal inhibition (IC50) in test [1] of 6510 nM. Against the preceding molecule, the IC50 is about 43-fold higher.

Consider `Cc1cccc(Cl)c1Nc1nc2cscc2[nH]1` [Example 9, 2-(2-Chloro-6-methylphenylamino)-1H-thieno[3,4-d]imidazole hydrochloride], for which half-maximal inhibition in test [1] (IC50) was put at 1430 nM. On the same count and under the same terms, for `Clc1csc(Cl)c1Nc1nc2cscc2[nH]1` [Example 10, 2-(2,4-Dichloro-3-thienylamino)-1H-thieno[3,4-d]imidazole hydrochloride] the value was 320 nM.

Turning to `Cc1csc(Cl)c1NC1=NCCN1` [tiamenidine], the “inhibitory action on NHE1” value in test [2] was “no relevant inhibitory actions”. Further, in test [3], the “inhibitory action on NHE2” value is listed as “no relevant inhibitory actions”. For the same molecule, the “inhibitory action on NHE3” value in test [1] (in a therapeutically utilizable concentration range) is reported as “no relevant inhibitory actions”. The “inhibitory action on NHE5” value in test [4] is given as “no relevant inhibitory actions”.

By IC50 is commonly meant the concentration that inhibits the measured activity by half. The low end stands for higher potency, the high end for lower potency.

Source of the values: patent US7179830B2, “Substituted thienoimidazoles useful for disease treatment and prevention” (Sanofi-aventis Deutschland GmbH, priority 2003, dated 2007).
